pIC50: −log10 of the molar value.

This assay in a line: Inhibition of MCP1-induced chemotaxis in U937 cells overexpressing CCR2.
Turning to `Clc1ccc(CN2CCC(Nc3cccc4cnccc34)C2)cc1` (stereo unspecified) [N-(1-(4-chlorobenzyl)pyrrolidin-3-yl)isoquinolin-5-amine], the pIC50 was 4.96.
To `Clc1ccc(CN2CCCC(Nc3cccc4cnccc34)C2)cc1` (stereo unspecified) [N-(1-(4-chlorobenzyl)piperidin-3-yl)isoquinolin-5-amine] belongs 4.64; to `Nc1ccc(CN2CCC(Nc3cccc4cnccc34)C2)cc1` (stereo unspecified) [N-(1-(4-aminobenzyl)pyrrolidin-3-yl)isoquinolin-5-amine], 4.82.
Next, `Fc1ccc(CN2CCC(Nc3cccc4cnccc34)C2)cc1` (stereo unspecified) [N-[1-(4-fluorobenzyl)-3-pyrrolidyl]-N-(5-isoquinolyl)amine]: 4.66.
The molecule `Nc1cccc(CN2CCC(Nc3cccc4cnccc34)C2)c1` (stereo unspecified) [N-(1-(3-aminobenzyl)pyrrolidin-3-yl)isoquinolin-5-amine] had a negative-log IC50 (pIC50) of 4.70.
Next, `Fc1cccc(F)c1CN1CCC(Nc2cccc3cnccc23)C1` (stereo unspecified) [N-(1-(2,6-difluorobenzyl)pyrrolidin-3-yl)isoquinolin-5-amine]: 5.00; `Clc1cccc(CN2CCC(Nc3cccc4cnccc34)C2)c1` (stereo unspecified) [N-(1-(3-chlorobenzyl)pyrrolidin-3-yl)isoquinolin-5-amine]: 4.85.
In turn, `Nc1cccc(CN2CC[C@@H](Nc3cccc4cnccc34)C2)c1` [(3R)-N-[1-(3-aminobenzyl)-3-pyrrolidyl]-N-(5-isoquinolyl)amine] showed a pIC50 of 6.00.
To `Clc1ccccc1CN1CCC(Nc2cccc3cnccc23)C1` (stereo unspecified) [N-[1-(2-chlorobenzyl)-3-pyrrolidyl]-N-(5-isoquinolyl)amine] belongs 4.77; to `Nc1ccccc1CN1CCC(Nc2cccc3cnccc23)C1` (stereo unspecified) [N-[1-(2-aminobenzyl)-3-pyrrolidyl]-N-(5-isoquinolyl)amine], 4.85; to `Nc1cccc(CN2CC[C@H](Nc3cccc4cnccc34)C2)c1` [(3S)-N-[1-(3-aminobenzyl)-3-pyrrolidyl]-N-(5-isoquinolyl)amine], 4.52.

For orientation: pIC50 means −log10 of the IC50, conventionally taken in molar units.
